Results from the supplement of paper PMC10307832.

What was measured:
Assay in all cases: relative viability (nuclei count vs DMSO), 5 days (fraction); higher = more cells survive
[1] = test system: NCI-H2228
In short: (§1)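 Dosing by pin tool came one day after lung cancer cell lines were seeded in 1536-well plates, using either one drug or a fixed anchor-drug dose plus five library-drug doses (not always all listed) in √10 steps. After 5 days, nuclei were counted on 4× images. Relative viability is treated-well nuclei count divided by vehicle-well nuclei count, and values are medians of duplicate plates.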

[2] = test system: PC-14
In short: as §1

[3] = test system: NCI-H661
In short: as §1

[4] = test system: SK-MES-1
In short: as §1

[5] = test system: CAL-12T
In short: as §1

[6] = test system: NCI-H2087
In short: as §1

[7] = test system: NCI-H1666
In short: as §1

[8] = test system: NCI-H1395
In short: as §1

[9] = test system: NCI-H358
In short: as §1

[10] = test system: NCI-H838
In short: as §1

[11] = test system: ABC-1
In short: as §1

[12] = test system: NCI-H1355
In short: as §1

[13] = test system: NCI-H1651
In short: as §1

[14] = test system: UMC-11
In short: as §1

[15] = test system: NCI-H2085
In short: as §1

[16] = test system: PC-3 [JPC-3]
In short: as §1

[17] = test system: LK-2
In short: as §1

[18] = test system: NCI-H1915
In short: as §1

[19] = test system: H3255
In short: as §1

[20] = test system: A-427
In short: as §1

[21] = test system: LCLC-97TM1
In short: as §1

[22] = test system: NCI-H322M
In short: as §1

Work on Cc1cnc(-c2cnc(NCCNc3ccc(C#N)cn3)nc2-c2ccc(Cl)cc2Cl)[nH]1 + COc1cc2c(Oc3ccc(NC(=O)C4(C(=O)Nc5ccc(F)cc5)CC4)cc3F)ccnc2cc1OCCCN1CCOCC1 [Foretinib] (partner 0.25 µM) yielded a relative viability ([1]; first compound 0.08 µM) of 0.954, a relative viability ([1]; first compound 0.253 µM) of 0.761 and a relative viability ([1]; first compound 0.8 µM) of 0.898. The relative viability ([1]; first compound 2.53 µM) was 0.589, the relative viability ([2]; first compound 0.08 µM) was 0.978 and the relative viability ([2]; first compound 0.253 µM) was 0.852. It also gave a relative viability ([2]; first compound 0.8 µM) of 0.941, a relative viability ([2]; first compound 2.53 µM) of 0.894 and a relative viability ([3]; first compound 0.08 µM) of 1.05. It also gave a relative viability ([3]; first compound 0.253 µM) of 0.99, a relative viability ([3]; first compound 0.8 µM) of 1.01 and a relative viability ([3]; first compound 2.53 µM) of 0.894. The relative viability ([4]; first compound 0.08 µM) was 1.09, the relative viability ([4]; first compound 0.253 µM) was 0.909 and the relative viability ([4]; first compound 0.8 µM) was 0.942. It also gave a relative viability ([4]; first compound 2.53 µM) of 1.02, a relative viability ([5]; first compound 0.08 µM) of 1.07 and a relative viability ([5]; first compound 0.253 µM) of 0.946. The relative viability ([5]; first compound 0.8 µM) was 1.15, the relative viability ([5]; first compound 2.53 µM) was 0.979 and the relative viability ([6]; first compound 0.08 µM) was 1.31. The relative viability ([6]; first compound 0.253 µM) was 1.06, the relative viability ([6]; first compound 0.8 µM) was 1.14 and the relative viability ([6]; first compound 2.53 µM) was 1.14. The relative viability ([7]; first compound 0.08 µM) was 0.934, the relative viability ([7]; first compound 0.253 µM) was 0.906 and the relative viability ([7]; first compound 0.8 µM) was 0.995. It also gave a relative viability ([7]; first compound 2.53 µM) of 0.924, a relative viability ([8]; first compound 0.08 µM) of 1.03 and a relative viability ([8]; first compound 0.253 µM) of 0.953. It also gave a relative viability ([8]; first compound 0.8 µM) of 1.02, a relative viability ([8]; first compound 2.53 µM) of 0.956 and a relative viability ([9]; first compound 0.08 µM) of 0.735. For the same molecule, the relative viability ([9]; first compound 0.253 µM) was 0.597, the relative viability ([9]; first compound 0.8 µM) was 0.404 and the relative viability ([9]; first compound 2.53 µM) was 0.509. It also gave a relative viability ([10]; first compound 0.08 µM) of 1.04, a relative viability ([10]; first compound 0.253 µM) of 1.02 and a relative viability ([10]; first compound 0.8 µM) of 1.15. The relative viability ([10]; first compound 2.53 µM) was 1.21, the relative viability ([11]; first compound 0.08 µM) was 1.32 and the relative viability ([11]; first compound 0.253 µM) was 1.31. For the same molecule, the relative viability ([11]; first compound 0.8 µM) was 1.34, the relative viability ([11]; first compound 2.53 µM) was 1.2 and the relative viability ([12]; first compound 0.08 µM) was 0.901. The relative viability ([12]; first compound 0.253 µM) was 0.867, the relative viability ([12]; first compound 0.8 µM) was 0.97 and the relative viability ([12]; first compound 2.53 µM) was 0.96. It also gave a relative viability ([13]; first compound 0.08 µM) of 0.728, a relative viability ([13]; first compound 0.253 µM) of 0.777 and a relative viability ([13]; first compound 0.8 µM) of 0.785. It also gave a relative viability ([13]; first compound 2.53 µM) of 0.883, a relative viability ([14]; first compound 0.08 µM) of 0.986 and a relative viability ([14]; first compound 0.253 µM) of 0.999. It also gave a relative viability ([14]; first compound 0.8 µM) of 1.11, a relative viability ([14]; first compound 2.53 µM) of 1 and a relative viability ([15]; first compound 0.08 µM) of 0.989. The relative viability ([15]; first compound 0.253 µM) was 0.88, the relative viability ([15]; first compound 0.8 µM) was 0.762 and the relative viability ([15]; first compound 2.53 µM) was 0.937. The relative viability ([16]; first compound 0.08 µM) was 0.978, the relative viability ([16]; first compound 0.253 µM) was 0.926 and the relative viability ([16]; first compound 0.8 µM) was 1.03. It also gave a relative viability ([16]; first compound 2.53 µM) of 1.03, a relative viability ([17]; first compound 0.08 µM) of 1.6 and a relative viability ([17]; first compound 0.253 µM) of 0.82. The relative viability ([17]; first compound 0.8 µM) was 0.942, the relative viability ([17]; first compound 2.53 µM) was 1.21 and the relative viability ([18]; first compound 0.08 µM) was 1.11. For the same molecule, the relative viability ([18]; first compound 0.253 µM) was 0.844, the relative viability ([18]; first compound 0.8 µM) was 1.1 and the relative viability ([18]; first compound 2.53 µM) was 1.07. The relative viability ([19]; first compound 0.08 µM) was 0.956, the relative viability ([19]; first compound 0.253 µM) was 0.696 and the relative viability ([19]; first compound 0.8 µM) was 0.988. The relative viability ([19]; first compound 2.53 µM) was 0.841, the relative viability ([20]; first compound 0.08 µM) was 1.13 and the relative viability ([20]; first compound 0.253 µM) was 1.01. It also gave a relative viability ([20]; first compound 0.8 µM) of 0.861, a relative viability ([20]; first compound 2.53 µM) of 1.07 and a relative viability ([21]; first compound 0.08 µM) of 0.917. It also gave a relative viability ([21]; first compound 0.8 µM) of 0.878, a relative viability ([21]; first compound 2.53 µM) of 0.86 and a relative viability ([22]; first compound 0.08 µM) of 1.07. It also gave a relative viability ([22]; first compound 0.253 µM) of 0.856, a relative viability ([22]; first compound 0.8 µM) of 1 and a relative viability ([22]; first compound 2.53 µM) of 1.2.
